Assay results: PMC6895199, “A new antiviral scaffold for human norovirus identified with computer-aided approaches on the viral polymerase” (Scientific Reports, 2019)

Biological target: HuNoV (GII.4) RdRp (Norovirus Hu/GII.4/Sydney/NSW0514/2012/AU, UniProt K4L8Z7)
Experiment: Quantitative fluorescent RdRp activity assay (PicoGreen, poly(C) template)
Format: biochemical, human norovirus Sydney 2012
Conditions: 20 µM; for inhibition at 20 µM: read-out: inhibition of HuNoV RdRp activity at fixed concentration
Method in brief: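 Enzyme (400 ng) preincubated with compound 10 min at 30 °C, then reacted 15 min at 30 °C with 45 μM GTP, 10 ng/μL poly(C), 2.5 mM MnCl2, pH 7.5. Stopped with EDTA; dsRNA quantified by PicoGreen. Six concentrations (0.1–100 µM) gave IC50, or single 20 µM screen vs 0.5% DMSO.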

| Compound | inhibition at 20 µM | inhibition of HuNoV RdRp activity at fixed concentration |
| --- | --- | --- |
| O=C(NC(=S)Nc1ccc(N2CCN(C(=O)c3cccs3)CC2)cc1)c1sc2ccccc2c1Cl [Compound 48, 3-Chloro-N-((4-(4-(thiophene-2-carbonyl)piperazin-1-yl)phenyl)carbamothioyl)benzo[b]thiophene-2-carboxamide, reference compound] | 20% |  |
| Cc1ccc(C(=O)NC(=S)Nc2ccc(N3CCN(C(=O)c4cccs4)CC3)cc2)cc1 [Compound 52, 4-Methyl-N-((4-(4-(thiophene-2-carbonyl)piperazin-1-yl)phenyl)carbamothioyl)benzamide] | ~15% |  |
| O=C(NC(=S)Nc1ccc(N2CCN(C(=O)c3nccs3)CC2)cc1)c1sc2ccccc2c1Cl [Compound 56, 3-Chloro-N-((4-(4-(thiazole-2-carbonyl)piperazin-1-yl)phenyl)carbamothioyl)benzo[b]thiophene-2-carboxamide] |  | does not affect enzymatic inhibition activity |
